Data published in patent US8158606B2, “β-L-2′-deoxynucleosides for the treatment of resistant HBV strains and combination therapies” (priority 2002, dated 2012).

Tests used:
[1] = Single dose bioavailability of L-dC in the cynomologus monkey; format: in vivo, cynomolgus monkey; settings: for AUC(0-t) / half-life: n=3, mean; for AUC(0-t): read-out: AUClast of L-dC; for half-life: in vivo
Description: The pharmacokinetics of L-dC following IV and oral administration of L-dC to cynomolgus monkeys was determined.

[2] = system: human peripheral blood mononuclear cells (PBMCs), bone marrow progenitor cells and numerous cell lines; experiment: Cytotoxicity of L-dC; format: cell-based, human and other non-human mammalian
Excerpt: Human DNA polymerases and mitochondrial function were not affected by L-dC in vitro. L-dC was non-cytotoxic to human peripheral blood mononuclear cells (PBMCs), bone marrow progenitor cells and numerous cell lines of human and other non-human mammalian origin.

[3] = system: L515M/M552I mutant HBV, cell line MI4; experiment: Antiviral testing in stable HepG2 cell lines, EPA of intracellular nucleocapsids; format: cell-based, hepatitis B virus; settings: Hepatitis B virus, HepG2, L515M/M552I double mutant
Description: (§1) Recombinant DNA constructs corresponding to these lamivudine-resistant mutants were created by site directed mutagenesis. The test system comprised stable cell lines harboring each of the transfected mutant genomes, as well as a wild-type control HBV genome. The antiviral activity of LdT (telbivudine) and LdC, together with the control drugs lamivudine and PMEA, was determined against the mutant and wild-type HBV genomes in the respective test cell lines.
(§2) Endogenous Polymerase Assay (EPA) of cell lysate: Cells were grown in 12-well collagen plates to 100% confluency for 3-4 days and cytosolic lysates were prepared in 1 ml of 50 mM Tris-HCl pH 7.4, 150 mM NaCl, 5 mM MgCl2, 0.2% NP-40. EPAs were essentially performed as described (Seifer et al., 1998). […] The immobilized capsids were then washed, endogenous polymerase reactions were initiated in 50 ul reaction volume containing 50 mM Tris-HCl pH7.4, 75 mM NH4Cl, 1 mM EDTA, 20 mM MgCl2, 0.1 mM β-ME, 0.5% NP-40, 100 μM cold dGTP, TTP, dCTP, and 50 nM ^33P-dATP (Perkin Elmer Life Sciences Cat# NEG 612H), and incubated overnight at 37° C. Following digestion with 1 mg/ml of Proteinase K (Roche, Cat#1373196) for 1 h at 37° C., ^33P-labeled HBV DNA was liberated via phenol/chloroform extraction The nucleic acids were finally precipitated with equal volumes 5M NH4-acetate and 2.5 volumes 100% EtOH and separated on a 1% native agarose gel in Tris-borate buffer. Gels were either fixed with 7% TCA, then dried, or blotted onto positively charged nylon membrane (Pall Biodyne Plus Cat#60406) overnight at room temperature via capillary transfer in 0.4 N NaOH. Dried gels/membranes were exposed to a phosphoimager screen (Molecular Dynamics) overnight at room temperature, then scanned (Storm 860, Molecular Dynamics) and quantitated with ImageQuant (Molecular Dynamics) software.
(§3) 12-well Biocoat collagen I plates (Becton Dickinson Cat#35-4500) are seeded with cells at a density of 0.5-1×10^6 cells per well in 2 ml DMEM containing 5% FBS, 2 mM L-glutamine, 100 I.U. penicillin/100 μg/mL streptomycin, and 0.5 mg/mL G-418.
(§4) Drug dilutions are prepared freshly in 100% DMSO as 200× stocks. For each experiment, 4 aliquots of each drug dilution series are stored at −20° C. until used. Once cells reach confluency, drug treatment is initiated by adding 10 μL of drug dilution into 2 ml of fresh DMEM+5% FBS. […] The no-drug control well receives only 10 μl of DMSO. Cells are treated every other day with 2 mL of fresh drug/medium for a total of 8 days. Cell lysates are then collected on day 10 as described below:
(§5) Aspirate media and rinse cell monolayer carefully once with 1 mL of PBS.
(§6) Add 1 ml of lysis buffer (50 mM Tris-HCl pH 7.5/150 mM NaCl/5 mM MgCl2/0.2% NP-40). Store on ice for 30 min to 4 h.
(§7) Harvest lysed cells. Transfer to 1.5 ml microfuge tubes.
(§8) Clarify lysate by spinning for 5 min at RT and 14,000 rpm.
(§9) Transfer clarified lysate to fresh tubes. Snap-freeze on dry-ice and store at −80° C. until ready to continue with endogenous polymerase assays essentially as described above.
(§10) EC50's were generated from the phosphorimager data by curve fitting using Xlfit software.

[4] = system: L515M/M552V mutant HBV, cell line MV5/B3; experiment: as above; format: cell-based, hepatitis B virus; settings: Hepatitis B virus, HepG2, L515M/M552V, cell line MV5/B3; mean ± SD of three to four experiments; read-out: EC50
Description: as §1, §2, §3, §4, §5, §6, §7, §8, §9, §10

[5] = system: M552I mutant HBV, cell line I2; experiment: as above; format: cell-based, hepatitis B virus; settings: Hepatitis B virus, HepG2, M552I single mutant
Description: as §1, §2, §3, §4, §5, §6, §7, §8, §9, §10

[6] = system: M552V mutant HBV, cell line V1/C9; experiment: as above; format: cell-based, hepatitis B virus; settings: M552V single mutant
Description: as §1, §2, §3, §4, §5, §6, §7, §8, §9, §10

in vivo [7] = settings: rhesus monkey, po, 10 mg/kg
Description: (§11) The drug was detected and concentration determined using a reverse-phase HPLC technique. The blood and urine drug level data were analyzed by a non-modeling mathematical method and AUCs derived by the linear trapezoidal rule.

in vivo [8] = settings: Sprague-Dawley, rat, 10 mg/kg
Description: (§12) The drug was detected and the concentration determined in plasma and urine using a reverse-phase HPLC technique. The data were analyzed by a non-modeling mathematical method and the AUCs derived by the linear trapezoidal rule.

[9] = Bioavailability of the prodrugs of L-dC; settings: cynomolgus monkey, plasma, po, 10 mg/kg
[10] = Single-dose bioavailability of L-dC in the rat; settings: Sprague-Dawley, plasma, 10 mg/kg
Description: as §12

[11] = Single-dose bioavailability of L-dC in the rhesus monkey
Description: as §11

[12] = cynomolgus monkey, blood, L-dC 10 mg/kg single IV dose
[13] = cynomolgus monkey, blood, L-dC 10 mg/kg single oral dose
[14] = rhesus monkey, blood, po, 10 mg/kg

Nc1ccn([C@@H]2CC(O)[C@H](CO)O2)c(=O)n1 (stereo partly drawn) [L-dC, 2′-Deoxy-β-L-cytidine]
L-dC as share of the dose recovered in the urine ([1]; L-dC 10 mg/kg IV): 94% | administered dose recovered in urine within 2 hours ([1]; L-dC 10 mg/kg IV): 71% | renal clearance as share of total L-dC clearance ([1]; L-dC 10 mg/kg IV): 87% | L-dC as share of drug excreted in the urine ([1]; L-dC 10 mg/kg oral): ~69% | administered oral dose recovered in urine after 72 hours ([1]; L-dC 10 mg/kg oral): 15.5% | administered oral dose recovered in urine within 12 hours ([1]; L-dC 10 mg/kg oral): Approximately 8.5% | CL renal ([1]; cynomolgus monkey, blood and urine, L-dC 10 mg/kg single IV dose, mean, read-out: renal clearance (CLR) (converted)): 7.67 mL/min/kg | bioavailability ([1]; cynomolgus monkey, blood, L-dC 10 mg/kg oral vs IV, mean, read-out: oral bioavailability (F)): 16.4% | Tmax [1, 12]: 0 h | Cmax ([1]; cynomolgus monkey, blood, L-dC 10 mg/kg single IV dose, mean, at 15 minutes post-dose): 95.7 µM | Vd ([1]; cynomolgus monkey, blood, L-dC 10 mg/kg single IV dose, mean, read-out: apparent volume of distribution (Vd)): 1.22 L/kg | clearance ([1]; cynomolgus monkey, blood, L-dC 10 mg/kg single IV dose, mean, read-out: total clearance (CL) (converted)): 8.83 mL/min/kg | AUC(0-t) [1, 12]: 81.1 µM·h | Cmax [1, 13]: 3.38 µM | Tmax ([1]; cynomolgus monkey, blood, L-dC 10 mg/kg single oral dose, mean): 2.33 h | AUC(0-t) [1, 13]: 13.7 µM·h | half-life ([1]; cynomolgus monkey, L-dC 10 mg/kg single IV dose, read-out: t1/2 of L-dC (converted)): 1.59 h | half-life ([1]; cynomolgus monkey, L-dC 10 mg/kg single oral dose, read-out: terminal t1/2 of L-dC (converted)): 2.95 h | cytotoxicity in words [2]: non-cytotoxic | EC50 [3]: > 1000 µM | EC50 [4]: ~780 µM | EC50 [5]: > 1000 µM | activity against the mutant, in words [6]: retained almost complete activity | half-life (in vivo [7]): 3.34 h | half-life (in vivo [8]; po): 2.52 h | half-life (in vivo [8]; female, iv): 1.21 h | bioavailability [9]: 16.4 ± 5% | bioavailability ([10]; oral): 15.4% | AUC(0-t) ([10]; po): 4.77 µM·h | Cmax ([10]; po): 1.5 µM | Tmax ([10]; po): 1 h | AUC(0-t) ([10]; female, iv): 30.1 µM·h | Cmax ([10]; female, iv): 91.1 µM | Tmax ([10]; female, iv): 0 h | Vd ([10]; female, iv): 2.53 L/kg | clearance ([10]; female, iv): 24 mL/min/kg | L-dC as share of drug excreted in the urine ([11]; L-dC 10 mg/kg oral): ~77% | administered oral dose recovered in urine after 48 hours ([11]; L-dC 10 mg/kg oral): 15% | administered oral dose recovered in urine within 8 hours ([11]; L-dC 10 mg/kg oral): Approximately 8.5% | CL renal ([11]; rhesus monkey, blood and urine, po, 10 mg/kg): 4.55 mL/min/kg | AUC [11, 14]: 12.2 µM·h | Cmax [11, 14]: 3.23 µM | Tmax [11, 14]: 0.83 h | bioavailability [11, 14]: ~16%
